Assay results reported in paper PMC4660506 (Pharmacognosy Research, 2015).

What was measured:
xanthine oxidase (XO) = xanthine oxidase (XO) (Bos taurus, UniProt P80457); test: Xanthine oxidase inhibitory activity; type: biochemical
alpha-amylase = molecular target: T1, alpha-amylase (Sus scrofa, UniProt P00690); test: Alpha-amylase inhibitory activity; type: biochemical; conditions: qualitative statement
T1 sequence (P00690 16-511): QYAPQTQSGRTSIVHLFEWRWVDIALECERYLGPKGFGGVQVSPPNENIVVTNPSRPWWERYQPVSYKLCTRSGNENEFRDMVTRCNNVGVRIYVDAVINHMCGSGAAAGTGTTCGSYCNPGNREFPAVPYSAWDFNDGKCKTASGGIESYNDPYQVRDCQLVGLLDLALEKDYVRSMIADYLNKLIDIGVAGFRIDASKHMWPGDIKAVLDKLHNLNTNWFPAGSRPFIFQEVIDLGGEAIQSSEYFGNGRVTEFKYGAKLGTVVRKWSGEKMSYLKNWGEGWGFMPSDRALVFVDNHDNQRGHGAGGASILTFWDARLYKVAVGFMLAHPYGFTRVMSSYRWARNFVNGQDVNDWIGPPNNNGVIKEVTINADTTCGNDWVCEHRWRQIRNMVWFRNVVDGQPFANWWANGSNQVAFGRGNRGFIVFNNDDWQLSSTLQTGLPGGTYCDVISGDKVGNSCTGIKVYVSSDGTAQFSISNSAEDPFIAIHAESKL

Chain of xanthine oxidase (XO) (P80457 2-1332 limits assumed): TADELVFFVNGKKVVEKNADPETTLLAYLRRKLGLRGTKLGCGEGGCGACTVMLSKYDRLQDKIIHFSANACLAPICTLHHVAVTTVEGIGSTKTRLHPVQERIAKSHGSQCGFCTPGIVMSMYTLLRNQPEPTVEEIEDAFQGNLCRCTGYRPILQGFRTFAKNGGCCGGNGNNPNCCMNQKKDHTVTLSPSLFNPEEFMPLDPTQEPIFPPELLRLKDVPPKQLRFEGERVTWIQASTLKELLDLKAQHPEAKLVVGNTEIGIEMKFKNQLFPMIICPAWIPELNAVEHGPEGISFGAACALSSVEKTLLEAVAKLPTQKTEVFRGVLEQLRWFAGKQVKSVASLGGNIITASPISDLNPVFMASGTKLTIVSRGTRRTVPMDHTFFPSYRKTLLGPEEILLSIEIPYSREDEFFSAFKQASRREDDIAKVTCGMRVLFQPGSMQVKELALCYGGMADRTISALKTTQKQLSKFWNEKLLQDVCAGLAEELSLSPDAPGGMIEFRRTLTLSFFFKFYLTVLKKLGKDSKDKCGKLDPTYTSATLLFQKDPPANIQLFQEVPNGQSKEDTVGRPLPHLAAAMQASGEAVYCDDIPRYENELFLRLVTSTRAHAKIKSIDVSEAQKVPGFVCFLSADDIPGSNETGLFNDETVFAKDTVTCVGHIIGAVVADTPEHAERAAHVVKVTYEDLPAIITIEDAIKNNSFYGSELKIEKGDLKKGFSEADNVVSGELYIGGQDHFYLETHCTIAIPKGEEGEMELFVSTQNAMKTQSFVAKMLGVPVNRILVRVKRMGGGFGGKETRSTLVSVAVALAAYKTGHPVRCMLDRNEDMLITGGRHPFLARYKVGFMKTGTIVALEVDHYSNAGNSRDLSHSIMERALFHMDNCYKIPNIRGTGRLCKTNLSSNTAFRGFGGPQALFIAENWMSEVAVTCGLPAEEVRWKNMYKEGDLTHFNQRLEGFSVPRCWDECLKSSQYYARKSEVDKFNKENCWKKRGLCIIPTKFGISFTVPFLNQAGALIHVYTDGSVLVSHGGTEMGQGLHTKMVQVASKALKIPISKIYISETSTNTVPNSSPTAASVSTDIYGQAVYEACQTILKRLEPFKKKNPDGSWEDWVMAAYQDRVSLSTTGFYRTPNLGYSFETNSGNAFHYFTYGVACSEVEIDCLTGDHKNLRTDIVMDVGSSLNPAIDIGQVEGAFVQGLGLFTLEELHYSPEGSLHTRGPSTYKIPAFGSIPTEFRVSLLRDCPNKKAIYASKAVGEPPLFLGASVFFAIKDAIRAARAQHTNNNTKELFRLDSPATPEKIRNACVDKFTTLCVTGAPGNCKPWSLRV

Compound | XO inhibitory activity (in words) (xanthine oxidase (XO); qualitative statement) | Alpha-amylase inhibitory activity (in words) (alpha-amylase) | other results
2-hydroxyacetophenone [F2] | active |  | 
CC[C@H](CC[C@@H](C)[C@H]1CC[C@H]2[C@@H]3CC=C4C[C@@H](O)CC[C@]4(C)[C@H]3CC[C@]12C)C(C)C [F7, β-sitosterol] |  | more active against alpha-amylase as compared to the parent fraction | 
C[C@@H]1O[C@@H](OC[C@H]2O[C@@H](Oc3c(-c4ccc(O)c(O)c4)oc4cc(O)cc(O)c4c3=O)[C@H](O)[C@@H](O)[C@@H]2O)[C@H](O)[C@H](O)[C@H]1O [F9, rutin] | active |  | EC50 (xanthine oxidase (XO)): 17.5 µM
O=c1c(O)c(-c2ccc(O)c(O)c2)oc2cc(O)cc(O)c12 [F10, quercetin] |  |  | XO inhibitory activity (in words) (xanthine oxidase (XO); qualitative statement in text, listed as Quercetin): highest inhibitory activity; XO inhibitory activity (in words) (xanthine oxidase (XO); qualitative statement in text, listed as quercetin): active
C=C(C)[C@@H]1CC[C@]2(C)CC[C@]3(C)[C@H](CC[C@@H]4[C@@]5(C)CC[C@H](O)C(C)(C)[C@@H]5CC[C@]43C)[C@@H]12 [F11, lupeol] |  | more active against alpha-amylase as compared to the parent fraction | 
